Structures are written as SMILES. Some results are limits rather than exact numbers.

Data on 18 molecules can be found in US20260062443A1 (ALEXION PHARMACEUTICALS, INC., priority 2022, published 2026).

The assay concerns the target T1, Human complement C1s enzyme (Homo sapiens, UniProt P09871).
T1 sequence (P09871 438-688 limits assumed): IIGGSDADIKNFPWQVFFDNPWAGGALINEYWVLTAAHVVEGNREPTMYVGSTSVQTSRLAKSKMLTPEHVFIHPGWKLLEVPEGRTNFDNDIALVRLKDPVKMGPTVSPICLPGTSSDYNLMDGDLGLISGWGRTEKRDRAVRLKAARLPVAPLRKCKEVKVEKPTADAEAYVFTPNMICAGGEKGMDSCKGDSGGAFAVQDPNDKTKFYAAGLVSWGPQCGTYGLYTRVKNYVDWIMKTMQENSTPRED
T1 sequence (P09871 16-437 partner limits assumed): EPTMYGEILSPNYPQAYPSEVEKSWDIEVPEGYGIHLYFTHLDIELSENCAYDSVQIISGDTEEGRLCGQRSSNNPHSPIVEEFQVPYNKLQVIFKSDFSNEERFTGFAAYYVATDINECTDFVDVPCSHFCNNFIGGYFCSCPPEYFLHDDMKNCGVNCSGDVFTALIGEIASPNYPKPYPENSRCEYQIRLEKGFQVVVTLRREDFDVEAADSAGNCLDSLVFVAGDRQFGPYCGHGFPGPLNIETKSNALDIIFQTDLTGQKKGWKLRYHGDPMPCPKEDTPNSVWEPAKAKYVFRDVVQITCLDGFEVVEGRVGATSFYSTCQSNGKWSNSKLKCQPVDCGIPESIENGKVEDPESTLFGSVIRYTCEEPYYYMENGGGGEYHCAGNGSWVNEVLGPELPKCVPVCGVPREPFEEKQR
Description: Human C1s enzyme assay. Type of assay: biochemical. The note with it: human complement C1s enzyme 1.16 nM, substrate Z-L-Lys-SBzl 100 μM, 5 min preincubation; read-out: IC50 (Stars), C1s Inhibiting Activity. The method in brief:
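Serum-purified human C1s (1.16 nM final) preincubated 5 min at room temperature with compound in 50 mM Tris, 1 M NaCl, pH 7.5. Z-L-Lys-SBzl and DTNB added at 100 μM each; A405 followed every 30 s for 30 min, and IC50 obtained by nonlinear regression of reaction rates.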

By IC50 is commonly meant the concentration that gives 50% inhibition. For `C[C@@]12C[C@@H]1N(C(=O)CNC(=O)CCCOc1ccccc1)[C@H](C(=O)NCc1cnc3c(CN)cccn13)C2` [Compound 63, (1S,3S,5S)-N-((8-(aminomethyl)imidazo[1,2-a]pyridin-3-yl)methyl)-5-methyl-2-((4-phenoxybutanoyl)glycyl)-2-azabicyclo[3.1.0]hexane-3-carboxamide], the IC50 was over 1000 nM.
`Cc1cc(CN)cc(C2(NC(=O)[C@@H]3C[C@]4(C)C[C@@H]4N3C(=O)CNC(=O)CCCOc3ccccc3)CC2)c1` [Compound 64, (1S,3S,5S)-N-(1-(3-(aminomethyl)-5-methylphenyl)cyclopropyl)-5-methyl-2-((4-phenoxybutanoyl)glycyl)-2-azabicyclo[3.1.0]hexane-3-carboxamide]: the 50% inhibitory concentration (IC50) was over 1000 nM.
As for `Cn1c(C2(NC(=O)[C@@H]3C[C@]4(C)C[C@@H]4N3C(=O)CNC(=O)CCCOc3ccccc3)CC2)nc2ccncc21` [Compound 65, (1S,3S,5S)-5-methyl-N-(1-(3-methyl-3H-imidazo[4,5-c]pyridin-2-yl)cyclopropyl)-2-((4-phenoxybutanoyl)glycyl)-2-azabicyclo[3.1.0]hexane-3-carboxamide], the figure is over 1000 nM; as for `C[C@@]12C[C@@H]1N(C(=O)CNC(=O)CCCOc1ccccc1)[C@H](C(=O)OCc1cc3c(cn1)CNC3)C2` [Compound 66, (2,3-dihydro-1H-pyrrolo[3,4-c]pyridin-6-yl)methyl (1S,3S,5S)-5-methyl-2-((4-phenoxybutanoyl)glycyl)-2-azabicyclo[3.1.0]hexane-3-carboxylate], over 1000 nM; as for `C[C@@]12C[C@@H]1N(C(=O)CNC(=O)CCCOc1ccccc1)[C@H](C(=O)NCc1ccc3c(c1)CNC3)C2` [Compound 67, (1S,3S,5S)-N-(isoindolin-5-ylmethyl)-5-methyl-2-((4-phenoxybutanoyl)glycyl)-2-azabicyclo[3.1.0]hexane-3-carboxamide], 100 to 1000 nM.
As for `C[C@@H](NC(=O)[C@@H]1CC2(CN1C(=O)CNC(=O)c1ccc(-c3ccc(F)cc3F)cc1)OCCO2)c1cc2cnccc2[nH]1` [Compound 68, (S)-N-((R)-1-(1H-pyrrolo[3,2-c]pyridin-2-yl)ethyl)-7-((2′,4′-difluoro-[1,1′-biphenyl]-4-carbonyl)glycyl)-1,4-dioxa-7-azaspiro[4.4]nonane-8-carboxamide], the figure is 100 to 1000 nM; as for `C[C@@]12C[C@@H]1N(C(=O)CNC(=O)CCCOc1ccccc1)[C@H](C(=O)N[C@H]1CCn3c(CN)ccc31)C2` [Compound 69, (1S,3S,5S)-N-((S)-5-(aminomethyl)-2,3-dihydro-1H-pyrrolizin-1-yl)-5-methyl-2-((4-phenoxybutanoyl)glycyl)-2-azabicyclo[3.1.0]hexane-3-carboxamide], over 1000 nM.
As for `COC[C@@]1(F)C[C@@H](C(=O)N[C@H](C)c2cc3cnccc3[nH]2)N(C(=O)CNC(=O)c2ccc(-c3ccc(F)cc3F)cc2)C1` [Compound 70, (2S,4R)-N-((R)-1-(1H-pyrrolo[3,2-c]pyridin-2-yl)ethyl)-1-((2′,4′-difluoro-[1,1′-biphenyl]-4-carbonyl)glycyl)-4-fluoro-4-(methoxymethyl)pyrrolidine-2-carboxamide], the figure is over 1000 nM.
Take `CO[C@@H]1C[C@@H](C(=O)N[C@H](C)c2cc3cnccc3[nH]2)N(C(=O)CNC(=O)c2ccc3c(c2)-c2ccccc2C3(F)F)C1` [Compound 71, (2S,4R)-N-((R)-1-(1H-pyrrolo[3,2-c]pyridin-2-yl)ethyl)-1-((9,9-difluoro-9H-fluorene-3-carbonyl)glycyl)-4-methoxypyrrolidine-2-carboxamide]: the IC50 is under 100 nM.
Turning to `C[C@@H](NC(=O)[C@@H]1C[C@@H](S(C)(=O)=O)CN1C(=O)CNC(=O)c1ccc2c(c1)-c1ccccc1C2(F)F)c1cc2cnccc2[nH]1` [Compound 72, (2S,4R)-N-((R)-1-(1H-pyrrolo[3,2-c]pyridin-2-yl)ethyl)-1-((9,9-difluoro-9H-fluorene-3-carbonyl)glycyl)-4-(methylsulfonyl)pyrrolidine-2-carboxamide], the half-inhibitory concentration (IC50) was under 100 nM.
As for `COC[C@@]1(F)C[C@@H](C(=O)N[C@H](C)c2cc3cnccc3[nH]2)N(C(=O)CNC(=O)c2ccc3c(c2)-c2ccccc2C3(F)F)C1` [Compound 73, (2S,4R)-N-((R)-1-(1H-pyrrolo[3,2-c]pyridin-2-yl)ethyl)-1-((9,9-difluoro-9H-fluorene-3-carbonyl)glycyl)-4-fluoro-4-(methoxymethyl)pyrrolidine-2-carboxamide], the half-maximal inhibitory concentration (IC50) was under 100 nM.
The same measure for `C[C@@H](NC(=O)[C@@H]1C[C@]2(C)C[C@@H]2N1C(=O)CNC(=O)c1ccc2c(c1)-c1ccccc1C2(F)F)c1cc2cnccc2[nH]1` [Compound 76, (1S,3S,5S)-N-((R)-1-(1H-pyrrolo[3,2-c]pyridin-2-yl)ethyl)-2-((9,9-difluoro-9H-fluorene-3-carbonyl)glycyl)-5-methyl-2-azabicyclo[3.1.0]hexane-3-carboxamide]: over 1000 nM; for `C[C@@H](NC(=O)[C@@H]1C[C@@H](OC(F)F)CN1C(=O)CNC(=O)c1ccc2c(c1)-c1ccccc1C2(F)F)c1cc2cnccc2[nH]1` [Compound 77, (2S,4R)-N-((R)-1-(1H-pyrrolo[3,2-c]pyridin-2-yl)ethyl)-1-((9,9-difluoro-9H-fluorene-3-carbonyl)glycyl)-4-(difluoromethoxy)pyrrolidine-2-carboxamide]: under 100 nM.
In the case of `C[C@@]12C[C@@H]1N(C(=O)CNC(=O)CCCOc1ccccc1)[C@H](C(=O)N[C@@H]1CCn3c(CN)ccc31)C2` [Compound 78, (1S,3S,5S)-N-((R)-5-(aminomethyl)-2,3-dihydro-1H-pyrrolizin-1-yl)-5-methyl-2-((4-phenoxybutanoyl)glycyl)-2-azabicyclo[3.1.0]hexane-3-carboxamide], the IC50 fell in the range of 100 to 1000 nM.
The same measure for `C[C@@H](NC(=O)[C@@H]1CC2(CN1C(=O)CNC(=O)c1ccc(-c3ccccc3)cc1)OCCO2)c1cc2cnccc2[nH]1` [Compound 79, (S)-N-((R)-1-(1H-pyrrolo[3,2-c]pyridin-2-yl)ethyl)-7-(([1,1′-biphenyl]-4-carbonyl)glycyl)-1,4-dioxa-7-azaspiro[4.4]nonane-8-carboxamide]: 100 to 1000 nM.
The same measure for `Cc1cc(C(=O)NCC(=O)N2C[C@H](OC(F)F)C[C@H]2C(=O)N[C@H](C)c2cc3cnccc3[nH]2)ccc1Oc1ccccc1` [Compound 81]: under 100 nM; for `C[C@@H](NC(=O)[C@@H]1C[C@@H](S(C)(=O)=O)CN1C(=O)CNC(=O)c1ccc(-c2ccccc2)cc1)c1cc2cnccc2[nH]1` [Compound 82, (2S,4R)-N-((R)-1-(1H-pyrrolo[3,2-c]pyridin-2-yl)ethyl)-1-(([1,1′-biphenyl]-4-carbonyl)glycyl)-4-(methylsulfonyl)pyrrolidine-2-carboxamide]: 100 to 1000 nM.
Regarding `COC[C@@]1(F)C[C@@H](C(=O)N[C@H](C)c2cc3cnccc3[nH]2)N(C(=O)CNC(=O)c2ccc(-c3ccccc3)cc2)C1` [Compound 83, (2S,4R)-N-((R)-1-(1H-pyrrolo[3,2-c]pyridin-2-yl)ethyl)-1-(([1,1′-biphenyl]-4-carbonyl)glycyl)-4-fluoro-4-(methoxymethyl)pyrrolidine-2-carboxamide], the 50% inhibitory concentration (IC50) was 100 to 1000 nM.
